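All cell lines were grown in 96-well plates and treated with compound for 48 hours. Definition used: TGI = concentration required for complete inhibition of growth.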 *1 amine or outer side, *2 acyl side, *3 side chain or, on linkers, in order; H or OH if unused. Where a SMILES comes first, the peptide text is derived from it. [ ]: non-standard residue; d: D form. ξ: configuration not given here. Ile(3ξ) = CCC(C)[C@H](N)C(=O)O; X33 = C=CCC(O[*:1])C(=O)[*:2]; NMeV = CN[C@H](C(=O)O)C(C)C; NMeA = CN[C@@H](C)C(=O)O; βAla = NCCC(=O)O
Tests used:
Experiment in all cases: NCI anticancer screen, dose series, 48 h
786-0 renal = test system: 786-0 renal
A498 renal = test system: A498 renal
A549 NSCLC = test system: A549 NSCLC
ACHN renal = test system: ACHN renal
CAKI-1 renal = test system: CAKI-1 renal
CCRF-CEM leukemia = test system: CCRF-CEM leukemia
COLO 205 colon = test system: COLO 205 colon
DLD-1 colon = test system: DLD-1 colon
DMS 114 small cell lung = test system: DMS 114 small cell lung
DMS 273 small cell lung = test system: DMS 273 small cell lung
EKVX NSCLC = test system: EKVX NSCLC
HCC-2998 colon = test system: HCC-2998 colon
HCT-116 colon = test system: HCT-116 colon
HCT-15 colon = test system: HCT-15 colon
HL-60(TB) leukemia = test system: HL-60(TB) leukemia
HOP-62 NSCLC = test system: HOP-62 NSCLC
HOP-92 NSCLC = test system: HOP-92 NSCLC
HT29 colon = test system: HT29 colon
IGROV1 ovarian = test system: IGROV1 ovarian
K-562 leukemia = test system: K-562 leukemia
KM12 colon = test system: KM12 colon
KM20L2 colon = test system: KM20L2 colon
LOX IMVI melanoma = test system: LOX IMVI melanoma
LXFL 529 NSCLC = test system: LXFL 529 NSCLC
M14 melanoma = test system: M14 melanoma
M19-MEL melanoma = test system: M19-MEL melanoma
MALME-3M melanoma = test system: MALME-3M melanoma
MOLT-4 leukemia = test system: MOLT-4 leukemia
NCI-H226 lung = test system: NCI-H226 lung
NCI-H23 lung = test system: NCI-H23 lung
NCI-H460 lung = test system: NCI-H460 lung
OVCAR-3 ovarian = test system: OVCAR-3 ovarian
OVCAR-4 ovarian = test system: OVCAR-4 ovarian
OVCAR-5 ovarian = test system: OVCAR-5 ovarian
OVCAR-8 ovarian = test system: OVCAR-8 ovarian
RPMI-8226 leukemia = test system: RPMI-8226 leukemia
RXF 393 renal = test system: RXF 393 renal
RXF-631 renal = test system: RXF-631 renal
SF-268 CNS = test system: SF-268 CNS
SF-295 CNS = test system: SF-295 CNS
SF-539 CNS = test system: SF-539 CNS
SK-MEL-2 melanoma = test system: SK-MEL-2 melanoma
SK-MEL-28 melanoma = test system: SK-MEL-28 melanoma
SK-MEL-5 melanoma = test system: SK-MEL-5 melanoma
SK-OV-3 ovarian = test system: SK-OV-3 ovarian
SN12C renal = test system: SN12C renal
SNB-19 CNS = test system: SNB-19 CNS
SNB-75 CNS = test system: SNB-75 CNS
SNB-78 CNS = test system: SNB-78 CNS
SR leukemia = test system: SR leukemia
SW-620 colon = test system: SW-620 colon
TK-10 renal = test system: TK-10 renal
U251 CNS = test system: U251 CNS
UACC-257 melanoma = test system: UACC-257 melanoma
UACC-62 melanoma = test system: UACC-62 melanoma
UO-31 renal = test system: UO-31 renal
XF 498 CNS = test system: XF 498 CNS

Work on `C=CCC1OC(=O)CCNC(=O)[C@H](C)N(C)C(=O)[C@H](C(C)C)N(C)C(=O)[C@H](C(C)CC)NC(=O)[C@@H]2CCCN2C1=O` (some centres not stated) (cyclo([Ile(3ξ)][NMeV][NMeA][βAla][X33]P)) yielded a TGI (786-0 renal) of over 100 µM, a TGI (A498 renal) of over 100 µM and a TGI (A549 NSCLC) of over 100 µM. It also gave a TGI (ACHN renal) of over 100 µM, a TGI (CAKI-1 renal) of over 78.6 µM and a TGI (CCRF-CEM leukemia) of over 100 µM. It also gave a TGI (COLO 205 colon) of over 100 µM, a TGI (DLD-1 colon) of over 100 µM and a TGI (DMS 114 small cell lung) of over 100 µM. It also gave a TGI (DMS 273 small cell lung) of 28.9 µM, a TGI (EKVX NSCLC) of over 100 µM and a TGI (HCC-2998 colon) of 27.7 µM. For the same compound, the TGI (HCT-116 colon) was over 100 µM, the TGI (HCT-15 colon) was over 100 µM and the TGI (HL-60(TB) leukemia) was over 100 µM. It also gave a TGI (HOP-62 NSCLC) of over 21 µM, a TGI (HOP-92 NSCLC) of over 30.9 µM and a TGI (HT29 colon) of over 100 µM. It also gave a TGI (IGROV1 ovarian) of over 100 µM, a TGI (K-562 leukemia) of over 71.6 µM and a TGI (KM12 colon) of over 100 µM. For the same compound, the TGI (KM20L2 colon) was over 52 µM, the TGI (LOX IMVI melanoma) was over 31.7 µM and the TGI (LXFL 529 NSCLC) was over 100 µM. It also gave a TGI (M14 melanoma) of 7.87 µM, a TGI (M19-MEL melanoma) of over 67.6 µM and a TGI (MALME-3M melanoma) of 16.5 µM. The TGI (MOLT-4 leukemia) was over 100 µM, the TGI (NCI-H226 lung) was 29.2 µM and the TGI (NCI-H23 lung) was over 100 µM. It also gave a TGI (NCI-H460 lung) of over 100 µM, a TGI (OVCAR-3 ovarian) of over 100 µM and a TGI (OVCAR-4 ovarian) of over 100 µM. For the same compound, the TGI (OVCAR-5 ovarian) was over 100 µM, the TGI (OVCAR-8 ovarian) was over 100 µM and the TGI (RPMI-8226 leukemia) was over 100 µM. For the same compound, the TGI (RXF 393 renal) was over 100 µM, the TGI (RXF-631 renal) was over 100 µM and the TGI (SF-268 CNS) was 58.4 µM. For the same compound, the TGI (SF-295 CNS) was over 100 µM, the TGI (SF-539 CNS) was over 79.4 µM and the TGI (SK-MEL-2 melanoma) was 12.6 µM. It also gave a TGI (SK-MEL-28 melanoma) of over 100 µM, a TGI (SK-MEL-5 melanoma) of 10.4 µM and a TGI (SK-OV-3 ovarian) of over 100 µM. It also gave a TGI (SN12C renal) of over 100 µM, a TGI (SNB-19 CNS) of over 100 µM and a TGI (SNB-75 CNS) of over 90.5 µM. The TGI (SNB-78 CNS) was over 100 µM, the TGI (SR leukemia) was over 100 µM and the TGI (SW-620 colon) was over 100 µM. The TGI (TK-10 renal) was over 100 µM, the TGI (U251 CNS) was over 100 µM and the TGI (UACC-257 melanoma) was 36.3 µM. For the same compound, the TGI (UACC-62 melanoma) was over 46.2 µM, the TGI (UO-31 renal) was 99.6 µM and the TGI (XF 498 CNS) was 41.8 µM.

Reference: PubChem BioAssay (NCI)
